Data on two molecules can be found in ChEMBL document CHEMBL3397038, “A coumarin lignanoid from the stems of Kadsura heteroclita” (2015).

One test relates to Primary neuron. The test is described as follows: Neuroprotective activity against serum-deprivation-induced neurotoxicity in rat primary cerebellar granule neuronal cells assessed as cell viability at 10 uM by MTT assay relative to control. It counts as functional, cell-based. (Formazan colour is commonly taken as a measure of viable cells.)
Test [1] in a line: Antifibrotic activity in […] cells assessed as inhibition of acetaldehyde-stimulated cell growth at 50 uM/L. It counts as functional.
Test [2] deals with Hepatitis B virus. Put plainly: Antiviral activity against hepatitis B viral in human HepG2(2.2.15) cells assessed as decrease in surface antigen HBeAg secretion at 25 ug/ml after 7 days. It counts as functional. Conditions: HepG2 2.2.15, 168 h.
The next test has as its system PC-12. The test is described as follows: Neuroprotective activity against serum-deprivation-induced neurotoxicity in rat PC12 cells assessed as cell viability at 10 uM after 48 hrs by MTT assay relative to control. It counts as functional, cell-based.
The subject of test [3] is Hepatitis B virus. The test is described as follows: Antiviral activity against hepatitis B viral in human HepG2(2.2.15) cells assessed as decrease in surface antigen HBsAg secretion at 25 ug/ml after 7 days. The class given is functional. Conditions: HepG2 2.2.15, 168 h.

Calls of active or inactive are those of the source. No cut-off for these calls is given here.

Regarding `O=c1oc2cc3c(cc2cc1[C@@H](CO)Cc1ccc2c(c1)OCO2)OCO3`, the result in the test with Primary neuron and in the test with PC-12 was Active. The inhibition – broadly, the share of the control response that was lost under treatment – at 50 µM in test [1] amounted to 71%. For the same molecule, the inhibition at 25 µg/mL with Hepatitis B virus [2] stood at 48%; in the test on Hepatitis B virus [3] it was 57%.

Turning to `Nc1ccn([C@@H]2CS[C@H](CO)O2)c(=O)n1` [LAMIVUDINE], the inhibition at 25 µg/mL in the test on Hepatitis B virus [2] was determined as 46%; in the test with Hepatitis B virus [3], 10%.
